Measurements taken from article PMC11225630 (Journal of Oral Microbiology, 2024).
Values belong to the compound of their own block, whether it stands above or below them. Where a SMILES comes first, the peptide text is derived from it.

Columns and labels:
Test in all cases: AMC release by intact cells, fluorescence
Assay type in all cases: cell-based
Settings in all cases: 20 uM; 50 mM phosphate, 5 mM EDTA, 100 mM NaCl, 37 C, 3 h
DPP4 = DPP4 (Porphyromonas gingivalis, UniProt B2RKU3)
DPP11 = molecular target: T1, DPP11 (Porphyromonas gingivalis, UniProt B2RID1)
T1 sequence (B2RID1 22-720): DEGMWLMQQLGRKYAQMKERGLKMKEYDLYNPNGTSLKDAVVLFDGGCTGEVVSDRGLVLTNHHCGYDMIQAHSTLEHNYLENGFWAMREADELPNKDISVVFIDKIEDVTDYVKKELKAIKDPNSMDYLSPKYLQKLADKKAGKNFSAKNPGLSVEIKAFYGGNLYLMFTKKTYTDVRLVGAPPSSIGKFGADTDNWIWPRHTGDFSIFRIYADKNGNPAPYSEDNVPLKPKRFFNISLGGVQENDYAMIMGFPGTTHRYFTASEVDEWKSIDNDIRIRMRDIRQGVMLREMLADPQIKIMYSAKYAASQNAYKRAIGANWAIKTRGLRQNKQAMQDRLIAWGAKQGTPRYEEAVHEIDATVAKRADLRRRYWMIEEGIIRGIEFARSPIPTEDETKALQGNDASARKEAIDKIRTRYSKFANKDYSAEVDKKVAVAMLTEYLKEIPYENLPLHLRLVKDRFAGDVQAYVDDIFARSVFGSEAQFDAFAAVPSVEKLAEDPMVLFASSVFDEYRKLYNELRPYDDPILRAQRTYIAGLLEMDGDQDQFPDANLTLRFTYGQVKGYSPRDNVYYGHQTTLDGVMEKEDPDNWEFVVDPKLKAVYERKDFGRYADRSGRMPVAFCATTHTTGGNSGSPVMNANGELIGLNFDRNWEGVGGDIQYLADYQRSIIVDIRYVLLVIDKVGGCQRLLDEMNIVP

DPP5 = molecular target: T2, DPP5 (Porphyromonas gingivalis, UniProt B2RIT0)
T2 sequence (B2RIT0 25-684): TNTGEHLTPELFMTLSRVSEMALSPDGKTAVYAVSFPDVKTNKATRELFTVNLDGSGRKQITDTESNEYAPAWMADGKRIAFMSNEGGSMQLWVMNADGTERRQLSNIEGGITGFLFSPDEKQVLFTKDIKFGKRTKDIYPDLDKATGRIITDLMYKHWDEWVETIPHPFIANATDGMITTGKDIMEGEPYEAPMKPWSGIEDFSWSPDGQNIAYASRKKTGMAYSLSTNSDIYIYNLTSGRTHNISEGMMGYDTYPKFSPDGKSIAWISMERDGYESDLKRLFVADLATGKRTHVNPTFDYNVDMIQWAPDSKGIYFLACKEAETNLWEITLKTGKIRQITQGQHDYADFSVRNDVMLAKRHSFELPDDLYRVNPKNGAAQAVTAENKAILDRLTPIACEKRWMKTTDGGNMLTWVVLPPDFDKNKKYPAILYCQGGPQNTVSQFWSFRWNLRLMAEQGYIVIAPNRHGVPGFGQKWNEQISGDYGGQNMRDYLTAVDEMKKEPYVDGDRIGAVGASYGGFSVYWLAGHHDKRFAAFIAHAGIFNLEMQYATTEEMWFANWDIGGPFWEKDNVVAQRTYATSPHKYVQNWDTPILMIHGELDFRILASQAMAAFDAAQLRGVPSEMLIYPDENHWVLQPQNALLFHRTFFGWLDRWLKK

AMC release by intact cells, fluorescence (DPP4): Gly-Pro-MCA (substrate of DPP4)
Structure (SMILES): Cc1cc(=O)oc2cc(NC(=O)[C@@H]3CCCN3C(=O)CN)ccc12 [Gly-Pro-MCA] (HELM PEPTIDE1{G.P.[Cc1cc(=O)oc2cc(N[*:1])ccc12]}$$$$V2.0)

AMC release by intact cells, fluorescence (DPP11): Leu-Asp-MCA (substrate of DPP11)
Structure (SMILES): Cc1cc(=O)oc2cc(NC(=O)[C@H](CC(=O)O)NC(=O)[C@@H](N)CC(C)C)ccc12 [Leu-Asp-MCA] (HELM PEPTIDE1{L.D.[Cc1cc(=O)oc2cc(N[*:1])ccc12]}$$$$V2.0)

AMC release by intact cells, fluorescence (DPP5): Lys-Ala-MCA (substrate of DPP5)
Structure (SMILES): Cc1cc(=O)oc2cc(NC(=O)[C@H](C)NC(=O)[C@@H](N)CCCCN)ccc12 [Lys-Ala-MCA] (HELM PEPTIDE1{K.A.[Cc1cc(=O)oc2cc(N[*:1])ccc12]}$$$$V2.0)
